How the values were obtained:
human cloned H1 receptor = molecular target: T1, human cloned H1 receptor (Homo sapiens, UniProt P35367); assay: CHO-K1 H1R binding assay (3H-pyrilamine displacement); conditions: CHO-K1 membranes, 3H-pyrilamine 2 nM, 3 hours at 37° C.; read-out: CHOH1 KI
T1 construct: expressed in transfected cells; host or cells: CHO-K1
Procedure: CHO—K1 cells expressing the human cloned H1 receptor are grown to confluence in tissue culture dishes. Cells are harvested using D-PBS buffer (JRH Biosciences), kept at 4° C., centrifuging to pellet cells (4° C., 500 g, 10 min). The final cell pellet is homogenized and resuspended using Tris/sucrose buffer (20 mM Tris, 250 mM sucrose, pH 74 at 4° C. Aliquots of the membrane preparation are stored at −70° C.
On the day of assay, the membrane preparation is thawed and centrifuged (TLA100.3 rotor, 4° C., 15 min, 23,000 rpm). The pellet is resuspended in Tris/sucrose buffer initially and then diluted further as necessary using assay buffer A (50 mM Na/KPO4, 2 mM MgCl2, 0.5% (w/v) BSA, pH 7.5).
For the binding assay, the membrane preparation, test compound and ^3H-pyrilamine (2 nM final) in buffer A with 1% (v/v) DMSO final are incubated in a 96-well polypropylene plate for 3 hours at 37° C. Non-specific binding is determined in the presence of 10 μM pyrilamine. A 96-well harvester (Packard) is used to harvest the 96-well plate onto a GF/B filter plate pre-treated with 0.1% (v/v) PEI. The plate is counted in a Packard Topcounter after adding Microscint 20 (Packard) scintillation fluid. The Ki for each compound at the histamine H1 receptor is then calculated from these counts.

[1] = molecular target: T2, human 5-lipoxygenase enzyme (Homo sapiens, UniProt P09917); assay: Inhibition of LTB4 production in human whole blood stimulated with calcium ionophore A23187; format: cell-based; conditions: A23187 50 μM, LTB4 by EIA, read-out: HWB IC50
T2 construct: Blood is drawn from normal human volunteers into tubes containing heparin; endogenous in cells; host or cells: human whole blood, heparinized, stimulated with A23187
T2 sequence (P09917 1-674): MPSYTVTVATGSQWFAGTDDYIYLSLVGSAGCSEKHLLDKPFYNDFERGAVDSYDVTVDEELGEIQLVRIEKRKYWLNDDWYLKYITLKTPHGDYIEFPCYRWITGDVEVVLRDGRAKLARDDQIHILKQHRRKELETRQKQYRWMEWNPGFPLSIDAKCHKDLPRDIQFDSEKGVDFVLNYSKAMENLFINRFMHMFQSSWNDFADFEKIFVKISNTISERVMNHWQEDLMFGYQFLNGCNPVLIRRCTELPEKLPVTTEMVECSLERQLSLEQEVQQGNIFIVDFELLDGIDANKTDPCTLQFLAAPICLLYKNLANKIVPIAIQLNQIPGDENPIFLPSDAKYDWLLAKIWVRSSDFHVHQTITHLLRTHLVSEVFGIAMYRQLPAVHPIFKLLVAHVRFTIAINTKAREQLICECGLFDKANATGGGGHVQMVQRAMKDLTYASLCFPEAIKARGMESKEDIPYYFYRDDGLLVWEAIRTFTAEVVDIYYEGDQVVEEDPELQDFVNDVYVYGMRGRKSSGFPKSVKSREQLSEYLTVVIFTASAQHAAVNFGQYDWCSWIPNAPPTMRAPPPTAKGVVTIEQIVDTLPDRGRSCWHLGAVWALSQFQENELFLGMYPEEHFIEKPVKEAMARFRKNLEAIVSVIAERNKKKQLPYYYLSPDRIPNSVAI
Procedure: This assay examines the ability of a compound to inhibit leukotriene B4 Production from human blood stimulated with calcium ionophore. As this production of leukotriene B4 is mediated via the activation of the 5-lipoxygenase enzyme, this assay is predictive of a compound's ability to inhibit the human 5-lipoxygenase enzyme.
The procedure for the assay is as follows. Blood is drawn from normal human volunteers into tubes containing heparin. 1 ml of the heparinized blood is pipetted into a 1.5 ml polypropylene tube. To this sample is added either different concentrations of the test compound (5 μl) dissolved in DMSO or 5 μl of DMSO as a vehicle control. These samples are incubated in a water bath, at […] for 15 min. […] From this a percent inhibition of LTB4 production by each concentration of test compound is calculated and the IC50 for inhibition of LTB4 production for each test compound is determined.

T1 sequence (P35367 whole entry): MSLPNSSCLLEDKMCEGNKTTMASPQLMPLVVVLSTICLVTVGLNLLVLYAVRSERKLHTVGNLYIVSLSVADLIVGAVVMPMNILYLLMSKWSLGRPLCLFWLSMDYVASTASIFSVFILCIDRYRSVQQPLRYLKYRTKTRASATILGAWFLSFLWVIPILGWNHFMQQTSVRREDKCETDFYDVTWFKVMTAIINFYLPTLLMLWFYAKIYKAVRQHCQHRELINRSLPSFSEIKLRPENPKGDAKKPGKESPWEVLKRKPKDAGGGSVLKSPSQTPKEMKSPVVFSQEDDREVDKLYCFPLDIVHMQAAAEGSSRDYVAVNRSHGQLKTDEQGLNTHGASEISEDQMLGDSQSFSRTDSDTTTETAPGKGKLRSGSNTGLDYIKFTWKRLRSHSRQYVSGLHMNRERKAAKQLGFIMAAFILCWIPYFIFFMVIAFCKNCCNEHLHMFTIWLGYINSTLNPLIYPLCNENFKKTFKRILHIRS

Ki (human cloned H1 receptor): 0.008 µM
IC50 [1]: 1.47 µM
Compound: NC(=O)N(O)CCOCCN1CCN([C@@H](c2ccccc2)c2ccc(Cl)cc2)CC1 [Compound 22, N-[2-(2-{4-[(1R)(4-chlorophenyl)phenylmethyl]piperazinyl}ethoxy)ethyl] amino-N-hydroxyamide]

Source: patent publication US6894059B1, “Compounds and methods for treatment of asthma, allergy and inflammatory disorders” (UCB S.A., priority 1999, dated 2005)
